# Values of other authors as cited in US12403129B2, “Isotope-enriched 3-amino-1-propanesulfonic acid derivatives for the treatment of cerebrovascular disease” (RISEN (SUZHOU) PHARMA TECH CO., LTD., priority 2021, dated 2025).
# Entries after “also recorded” stand apart in the source; their conditions may differ.
# Details: cited from earlier work
# [1] = 2-h time point, oral, 0.72 mmol/kg
smiles,measurement,setting,value
"[2H]C([2H])(N)CCS(=O)(=O)O [compound 1, 3-amino-3,3-dideuterium-1-propanesulfonic Acid]",concentration of metabolite (2-carboxy-1-ethanesulfonic acid) in plasma compared to 3APS (of natural abundance),[1],much lower
same,plasma drug concentration compared to 3APS (of natural abundance),[1],higher
same,plasma drug exposure compared to 3APS (of natural abundance),"mole-equivalent oral dose (0.72 mmol/kg), mouse plasma",improved plasma drug exposure significantly
same,drug metabolism / metabolic profile compared to 3APS,"mole-equivalent oral dose, mouse",delayed drug metabolism; also recorded: delayed metabolic profile
